Data on 20 compounds can be found in patent publication EP1137645B1, “ALPHA-METHYLBENZYL-CONTAINING THIOUREA INHIBITORS OF HERPES VIRUSES CONTAINING A […] GROUP” (Wyeth, priority 1998, dated 2000).

The test system of experiment [1] is HCMV recombinant mutant virus whose genome contains the prokaryotic beta-glucuronidase gene. Nature of the experiment: microbe, parasite or virus in culture. The format is cell-based, human cytomegalovirus. As to conditions: for IC50: Human betaherpesvirus 5, Fibroblast. Put shortly:
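Antiviral IC50 estimated from reduced reporter activity across compound amounts: lysates prepared 96 h after infection were tested with p-nitrophenyl- or methylumbelliferyl-glucuronide. Cells were human foreskin fibroblasts, infected alongside inhibitor with HCMV (e.g. RV145) expressing viral promoter-driven beta-glucuronidase.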

Experiment [2] concerns HSV- I. Nature of the experiment: HSV antiviral (ELISA) assay. As to conditions: for IC50: read-out: IC50 (ug/ml) HSV. The format is cell-based. Put shortly:
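IC50 from fluorescence versus untreated control in a cell ELISA: anti-glycoprotein D antibody, β-galactosidase-conjugated secondary, 4-methyl umbelliferone read at 365/450 nm. Vero cells (2% FBS DMEM) received compound 30 min pre-infection with HSV-1 at MOI 0.006, fixed ~24 h post-infection.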
For orientation: ELISA stands for enzyme-linked immunosorbent assay.

In experiment [3] the test system is VZV strain Ellen. Nature of the experiment: VZV antiviral (ELISA) assay. The class given is cell-based. In short, it runs like this: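 HFF cells infected with VZV Ellen at multiplicity below 0.1 overnight, then mixed infected/uninfected cells seeded with compound in DMEM/2% FBS and incubated three days at 37°C, 5% CO2.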
Setting [4] is: Human alphaherpesvirus 3, read-out: % inhibition 10 ug/ml VZV, 10 ug/ml, VZV strain Ellen, HFF cells, ELISA.
[5] abbreviates: Human alphaherpesvirus 3, VZV strain Ellen, HFF cells, ELISA, read-out: IC50 (ug/ml) VZV.
Where [6] appears, read: read-out: IC50 ug/ml HCMV, HCMV, human foreskin fibroblasts.
The mark [7] stands for this setting: Human alphaherpesvirus 3, HFF, read-out: % inhibition 10 ug/ml VZV.
Where [8] appears, read: Human alphaherpesvirus 3, HFF, read-out: IC50 (ug/ml) VZV.
Where [9] appears, read: Human alphaherpesvirus 3, HFF, read-out: IC50 (ug/ml) VZV, VZV strain Ellen, HFF cells, ELISA.

Values after ≈ are worked out from the molar mass of the structure shown. Read-outs that look alike come from different tables or passages of the source.

In the case of `O=C(Nc1ccc(NC(=S)Nc2ccc3[nH]nnc3c2)cc1)c1c(F)cccc1F` [Example 527, N-{4-[3-(1H-Benzotriazol-5-yl)-thioureido]-phenyl}-2,6-difluoro-benzamide], the IC50 was > 10 µg/mL in experiment [1] (read-out: IC50 ug/ml HCMV); > 10 µg/mL in experiment [2] (HSV- I, Vero cells, ELISA); > 10 µg/mL in experiment [3] (setting [5]). Also, the inhibition at 10 µg/mL in experiment [3] (setting [4]) worked out at 20%.

`CC(NC(=S)Nc1ccc(NC(=O)c2ccc(C#N)cc2)cc1)c1ccc(F)cc1` (centres unmarked) [Example 1022, 4-Cyano-N-(4-{3-[1-(4-fluoro-phenyl)-ethyl]-thioureido}-phenyl)-benzamide]: the IC50 in experiment [1] (read-out: IC50 ug/ml HCMV) was 4.4 µg/mL (≈ 10.5 µM); in experiment [2] (HSV- I, Vero cells, ELISA), > 10 µg/mL; in experiment [3] (setting [5]), 1.5 µg/mL (≈ 3.58 µM).

On to `O=C(Nc1ccc(NC(=S)Nc2cc(Cl)ccc2Cl)cc1)c1ccccc1F` [Example 931, N-{4-[3-(2,5-Dichloro-phenyl)-thioureido]-phenyl}-2-fluoro-benzamide], for which the IC50 in experiment [1] (setting [6]) was > 10 µg/mL; in experiment [2] (HSV- I, Vero cells, ELISA) it was 4 µg/mL (≈ 9.21 µM); in experiment [3] (setting [8]) it was > 10 µg/mL. The inhibition at 10 µg/mL in experiment [3] (setting [7]) amounted to 51%.

With “N-(4-{3-[1-(4-Bromo-phenyl)-ethyl]-thioureido}-phenyl)-2-methoxy-benzamide [Example 1019]”, the “IC50 ug/ml HCMV” value in experiment [1] (HCMV, human foreskin fibroblasts) stood at 2.6 µg/mL. The “IC50 (ug/ml) HSV” value in experiment [2] (HSV- I, Vero cells, ELISA) is >10 µg/mL. For the same compound, the “IC50 (ug/ml) VZV” value in experiment [3] (VZV strain Ellen, HFF cells, ELISA) amounted to 0.05 µg/mL.

On to `CCCCSc1ccc(NC(=S)Nc2ccc(NC(=O)c3ccccc3F)cc2)cc1Cl` [Example 387, N-{4-[3-(4-Butylsulfanyl-3-chloro-phenyl)-thioureido]-phenyl}-2-fluoro-benzamide], for which the IC50 is > 10 µg/mL in experiment [1] (setting [6]); > 10 µg/mL in experiment [2] (HSV- I, Vero cells, ELISA); > 10 µg/mL in experiment [3] (setting [8]). The inhibition at 10 µg/mL in experiment [3] (setting [7]) is 26%.

Take `COc1cc(OC)c(NC(=S)Nc2ccc(NC(=O)c3ccccc3OC)cc2)cc1Cl` [Example 119, N-{4-[3-(5-Chloro-2,4-dimethoxy-phenyl)-thioureido]-phenyl}-2-methoxy-benzamide]: the IC50 in experiment [1] (setting [6]) was > 10 µg/mL; in experiment [2] (HSV- I, Vero cells, ELISA), 0.5 µg/mL (≈ 1.06 µM); in experiment [3] (setting [8]), > 10 µg/mL. In addition, in experiment [3] (setting [7]), the inhibition at 10 µg/mL was 1%.

As for `CSc1ccc(NC(=S)Nc2ccc(NC(=O)c3c(F)cccc3F)cc2)cc1Cl` [Example 848, N-{4-[3-(3-Chloro-4-methylsulfanyl-phenyl)-thioureido]-phenyl}-2,6-difluoro-benzamide], the IC50 in experiment [1] (setting [6]) was found to be 0.3 µg/mL (≈ 0.647 µM); in experiment [2] (HSV- I, Vero cells, ELISA) it was 0.085 µg/mL (≈ 0.183 µM); in experiment [3] (setting [8]) it was 1.3 µg/mL (≈ 2.8 µM). Moreover, the inhibition at 10 µg/mL in experiment [3] (setting [7]) came to 101%.

In the case of `CC(NC(=S)Nc1ccc(NC(=O)c2cc3ccccc3o2)cc1)c1ccc(C#N)cc1` (centres unmarked) [Example 983, Benzofuran-2-carboxylic acid (4-{3-[1-(4-cyano-phenyl)-ethyl]-thioureido}-phenyl)-amide], the IC50 in experiment [1] (setting [6]) was 1.1 µg/mL (≈ 2.5 µM); in experiment [2] (HSV- I, Vero cells, ELISA), > 10 µg/mL; in experiment [3] (setting [8]) it was 0.6 µg/mL (≈ 1.36 µM).

With `Cc1ccc(NC(=S)Nc2ccc(NC(=O)c3ccccc3F)c(C)c2)cc1Cl` [Example 395, N-{4-[3-(3-Chloro-4-methyl-phenyl)-thioureido]-2-methyl-phenyl}-2-fluoro-benzamide], the IC50 in experiment [1] (setting [6]) was 3 µg/mL (≈ 7.01 µM); in experiment [2] (HSV- I, Vero cells, ELISA), 0.2 µg/mL (≈ 0.467 µM); in experiment [3] (setting [8]) it was > 10 µg/mL. Further, the inhibition at 10 µg/mL in experiment [3] (setting [7]) turned out to be 64%.

For `O=C(CN1CCSCC1)Nc1ccc(NC(=S)Nc2ccc(NC(=O)c3ccccc3F)cc2)cc1Cl` [Example 407, N-(4-{3-[3-Chloro-4-(2-thiomorpholin-4-yl-acetylamino)-phenyl]-thioureido}-phenyl)-2-fluoro-benzamide], the IC50 is > 10 µg/mL in experiment [1] (setting [6]); 4 µg/mL (≈ 7.17 µM) in experiment [2] (HSV- I, Vero cells, ELISA); 0.7 µg/mL (≈ 1.25 µM) in experiment [3] (setting [8]). Further, the inhibition at 10 µg/mL in experiment [3] (setting [7]) stood at 87%.

For the compound `COc1cc(OC)c(NC(=S)Nc2ccc(NC(=O)c3ccc(F)cc3F)cc2)cc1Cl` [Example 188, N-{4-[3-(5-Chloro-2,4-dimethoxy-phenyl)-thioureido]-phenyl}-2,4-difluoro-benzamide], the IC50 is > 10 µg/mL in experiment [1] (setting [6]); 1.2 µg/mL (≈ 2.51 µM) in experiment [2] (HSV- I, Vero cells, ELISA); > 10 µg/mL in experiment [3] (setting [8]). Further, in experiment [3] (setting [7]), the inhibition at 10 µg/mL worked out at 22%.

In the case of `COc1ccc(NC(=S)Nc2ccc(NC(=O)c3ccccc3F)cc2)cc1Br` [Example 811, N-{4-[3-(3-Bromo-4-methoxy-phenyl)-thioureido]-phenyl}-2-fluoro-benzamide], the IC50 in experiment [1] (setting [6]) is 3.1 µg/mL (≈ 6.54 µM); in experiment [2] (Vero) it was 0.8 µg/mL (≈ 1.69 µM); in experiment [3] (setting [9]), > 7.5 µg/mL.

For `CC(NC(=S)Nc1ccc(NC(=O)c2nccc3ccccc23)cc1)c1ccc(Br)cc1` (centres unmarked) [Example 978, Isoquinoline-1-carboxylic acid (4-{3-[1-(4-bromo-phenyl)-ethyl]-thioureido}-phenyl)-amide], the IC50 in experiment [1] (setting [6]) was 7.8 µg/mL (≈ 15.4 µM); in experiment [2] (Vero), > 10 µg/mL; in experiment [3] (setting [9]), 0.04 µg/mL (≈ 0.0791 µM).

For the compound `O=C(Nc1ccc(NC(=S)NCc2cccc(Cl)c2)cc1)c1ccccc1F` [Example 511, N-{4-[3-(3-Chloro-benzyl)-thioureido]-phenyl}-2-fluoro-benzamide], the IC50 in experiment [1] (setting [6]) was > 10 µg/mL; in experiment [2] (HSV- I, Vero cells, ELISA), > 10 µg/mL; in experiment [3] (setting [8]), > 10 µg/mL. In addition, the inhibition at 10 µg/mL in experiment [3] (setting [7]) was 10%.

As to `Cc1ccc(NC(=S)Nc2ccc(NC(=O)c3ccccc3F)cc2)cc1C(F)(F)F` [Example 1003, 2-Fluoro-N-{4-[3-(4-methyl-3-trifluoromethyl-phenyl)-thioureido]-phenyl}-benzamide], the IC50 in experiment [1] (read-out: IC50 ug/ml HCMV) was > 10 µg/mL; in experiment [2] (HSV- I, Vero cells, ELISA), > 10 µg/mL; in experiment [3] (setting [5]), > 10 µg/mL.

For the compound `Cc1ccc(NC(=S)Nc2ccc(NC(=O)c3ccccc3F)cc2Cl)cc1Cl` [Example 459, N-{3-Chloro-4-[3-(3-chloro-4-methyl-phenyl)-thioureido]-phenyl}-2-fluoro-benzamide], the IC50 in experiment [1] (setting [6]) was > 10 µg/mL; in experiment [2] (HSV- I, Vero cells, ELISA), 0.12 µg/mL (≈ 0.268 µM); in experiment [3] (setting [8]), > 10 µg/mL. Moreover, the inhibition at 10 µg/mL in experiment [3] (setting [7]) amounted to 25%.

For the compound `COc1cc(OC)c(NC(=S)Nc2ccc(NC(=O)c3ccccc3SC)cc2)cc1Cl` [Example 194, N-{4-[3-(5-Chloro-2,4-dimethoxy-phenyl)-thioureido]-phenyl}-2-methyl-sulfanyl-benzamide], the IC50 in experiment [1] (setting [6]) is > 10 µg/mL; in experiment [2] (HSV- I, Vero cells, ELISA), 1.5 µg/mL (≈ 3.07 µM); in experiment [3] (setting [8]), > 10 µg/mL. For the same compound, the inhibition at 10 µg/mL in experiment [3] (setting [7]) turned out to be 45%.

Regarding `COc1cc(OC)c(NC(=S)Nc2ccc(NC(=O)c3ccccc3O)cc2)cc1Cl` [Example 139, N-{4-[3-(5-Chloro-2,4-dimethoxy-phenyl)-thioureido]-phenyl}-2-hydroxy-benzamide], the IC50 in experiment [1] (setting [6]) was 6 µg/mL (≈ 13.1 µM); in experiment [2] (HSV- I, Vero cells, ELISA), 6 µg/mL (≈ 13.1 µM); in experiment [3] (setting [8]), 4 µg/mL (≈ 8.73 µM). In addition, the inhibition at 10 µg/mL in experiment [3] (setting [7]) was found to be 95%.

For `Nc1ccc(Cl)cc1NC(=S)Nc1ccc(NC(=O)c2ccccc2F)cc1` [Example 437, N-{4-[3-(2-Amino-5-chloro-phenyl)-thioureido]-phenyl}-2-fluoro-benzamide], the results for the IC50 in experiment [1] (setting [6]), in experiment [2] (Vero) and in experiment [3] (setting [8]) were > 10 µg/mL, 0.05 µg/mL (≈ 0.121 µM) and 8 µg/mL (≈ 19.3 µM), respectively. Further, the inhibition at 10 µg/mL in experiment [3] (setting [7]) was determined as 0%.

On to `COc1cccc(NC(=S)Nc2ccc(NC(=O)c3ccccc3F)cc2)c1` [Example 487, 2-Fluoro-N-{4-[3-(3-methoxy-phenyl)-thioureido]-phenyl}-benzamide], for which the IC50 was 10 µg/mL (≈ 25.3 µM) in experiment [1] (read-out: IC50 ug/ml HCMV); 4 µg/mL (≈ 10.1 µM) in experiment [2] (HSV- I, Vero cells, ELISA); > 10 µg/mL in experiment [3] (setting [5]). Moreover, the inhibition at 10 µg/mL in experiment [3] (setting [4]) came out at 48%.
